Measured values from patent US11382884B2, “Method for reducing lung infection” (priority 2017, dated 2022).
Where two headings read alike, the source gives them in different places.

Legend:
[1] = in vivo; cited from earlier work
P. aeruginosa [2] = details: in vivo; cited from earlier work
[3] = in vivo; cited from earlier work; remark: listed apart in the source
P. aeruginosa [4] = details: after two weeks of treatment, 300 mg EDTA/day nebulised with tobramycin; sputum; FIG. 25
Description: Patients were monitored for a further four weeks, bringing the total study time to 10 weeks.

[5] = Procedure: Subjects were then discharged and treatment was continued twice a day for four weeks. Patients were monitored for a further four weeks, bringing the total study time to 10 weeks. At each study visit, lung function was measured by spirometry. Data was recorded as the best of three attempts, and results were expressed as % predicted.
[6] = remark: listed apart in the source
Procedure: (§1) Subjects are then discharged and treatment continued twice a day for four weeks. Subjects are monitored for a further four weeks, bringing the total study time to 10 weeks. Sputum is collected by induction with nebulised 3% hypertonic saline at 8-10 L/min for […]. Samples are collected prior to treatment, and at 2, 6 and 10 weeks, processed according to the relevant protocol and stored at −80° C.
(§2) Expectorated sputum is stored in RNAlater, total RNA is extracted using a Qiagen RNEasy® or similar extraction kit, converted into cDNA, and inflammatory markers are monitored using qPCR as described by Sivaneson et al. (Sivaneson, M., Mikkelsen, H., Ventre, I., Bordi, C., and Filloux, A. (2011). Two-component regulatory systems in Pseudomonas aeruginosa: an intricate network mediating fimbrial and efflux pump gene expression. Mol Microbiol 79, 1353-1366) and quantified relative to known housekeeping genes, such as actin and/or GAPDH.
(§3) Expectorated sputum is frozen directly without processing and assayed for inflammatory markers as above. As a measure of structural damage, levels of matrix metalloproteinases (MMPs) and tissue inhibitors of metalloproteinases (TIMPs) are measured using gelatin zymography and immunoassays, respectively, as previously described (Gaggar et al., Eur Respir J. 2011 38(3): 721-727; Garratt et al., Eur Respir J. 2015 46(2):384-94). The amount of iron in the sputum is quantified by ICP-MS as previously described (Hunter et al., MBio 2013, 4(4):1-8). The amount of iron-binding proteins is assessed using immunoassays. Oxidative stress is assessed by measuring glutathione (GSSG and GSH) using immunoassays as previously described (Kettle et al., Eur Respir J. 2014 44(1):122-9).

[7] = remark: listed apart in the source
Procedure: as §1
as §2, with “RNAlater®,” for “RNAlater,”
as §3, with “MBio. 2013” for “MBio 2013,”

[8] = remark: listed apart in the source
Procedure: Subjects with CF who need treatment with dry powder tobramycin are allocated into four cohorts and receive 112 mg dry powder twice a day for 28 days. In addition, Cohort 1 (patients>18 years) receives ascending doses of dry powder CaEDTA (37.5 mg BID for 1 week; 75 mg BID for 2 weeks, 150 mg BID for 1 week). Patients in cohort 2 (>18 years) receive CaEDTA (37.5 mg BID for 1 week; 75 BID for 2 weeks; 75 mg QID for 1 week). Patients in cohort 3 (12-18 years) receive CaEDTA (37.5 mg BID for 1 week; 75 mg BID for 2 weeks, 150 mg BID for 1 week. Finally, a control cohort receives tobramycin alone for 28 days.
Sputum samples are collected weekly and assessed for markers of infection and inflammation. Bacteria are monitored by sputum colony counts. As a measure of structural damage, levels of matrix metalloproteinases (MMPs) and tissue inhibitors of metalloproteinases (TIMPs) are measured using gelatin zymography and immunoassays, respectively, as previously described (Gaggar et al., Eur Respir J. 2011 38(3): 721-727; Garratt et al., Eur Respir J. 2015 46(2):384-94). The amount of iron in the sputum is quantified by ICP-MS as previously described (Hunter et al., 2013). The amount of iron-binding proteins is assessed using immunoassays. Myeloperoxidase activity is also assayed as a measure of neutrophilic inflammation as previously described (Gaggar et al., 2011). 3-chlorotyrosine is measured as a biomarker of the potent oxidant hypochlorous acid. Levels are measured using stable isotope dilution gas chromatography with mass spectrometry (Gaggar et al., 2011). Protein carbonyls are measured as an indicator of reactive oxygen species (ROS) using a commercial immunoassay kit (Gaggar et al., 2011). Oxidative stress is assessed by measuring glutathione (GSSG and GSH) using immunoassays as previously described (Kettle et al., 2014). Gene expression of inflammatory and oxidative stress markers (e.g. IL-8, IL-6, TNFa) will also be monitored by Nanostring, and proteins will be measured by ELISA. Oxidative stress can also be measured via metabolites, such as molondialdehyde (colorimetric assay) or 8-isoprostane (ELISA). Iron will be measured by elemental analysis using laser ablation-inductively coupled plasma-mass spectrometry (LA-ICP-MS).

[9] = remark: listed apart in the source
Procedure: A single centre, randomised, double blind, crossover study of cystic fibrosis subjects is carried out. Subjects are randomised for treatment with inhaled CaEDTA or saline (placebo) 2-4 times a day for two weeks.
Iron levels, inflammatory markers, MMP/TIMP and FEV1 are monitored as above. Myeloperoxidase activity are also assayed as a measure of neutrophilic inflammation as previously described (Gaggar et al., 2011). 3-chlorotyrosine is measured as a biomarker of the potent oxidant hypochlorous acid. Levels are measured using stable isotope dilution gas chromatography with mass spectrometry (Gaggar et al., 2011). Protein carbonyls are measured as an indicator of ROS using a commercial immunoassay kit (Gaggar et al., 2011).

[10] = EDTA group compared with placebo group

O=C(O)CN(CCN(CC(=O)O)CC(=O)O)CC(=O)O [EDTA, ethylene diamine tetraacetic acid]
bronchoconstriction [1]: concentration-dependent bronchoconstriction | treatment of bacterial infections by inhaled EDTA alone (P. aeruginosa [2]): does not treat bacterial infections | effect on FEV1 [3]: no effect on FEV1 | reduction in colony counts (P. aeruginosa [4]): > 400 fold | mean change in FEV1 ([5]; 2, 6 and 10 weeks after start of treatment, FIG. 26): clear improvement in lung function | dose dependence of effect on lung function ([5]; mg EDTA/kg body weight, FIG. 27): dose-dependent effect on lung function | gene expression of inflammatory markers (qPCR, sputum) [6, 10]: mean reduction | inflammatory markers in sputum [6, 10]: reduction | FEV1 ([6]; compared with placebo (carrier only)): increase | balance between MMPs and TIMPs ([6]; especially MMP-9 and TIMP-1): change in the balance | iron levels in sputum ([6]; human, in vivo): decrease | gene expression of inflammatory markers (qPCR, sputum) [7, 10]: mean reduction | inflammatory markers in sputum [7, 10]: reduction | balance between MMPs and TIMPs ([7]; especially MMP-9 and TIMP-1): change in the balance | inflammatory markers in sputum [8, 10]: reduction | FEV1 ([8]; compared with control patients): increase | bacterial load in sputum ([8]; compared with control patients): reduction | balance between MMPs and TIMPs ([8]; especially MMP-9 and TIMP-1): change in the balance | iron levels in sputum ([8]; human, in vivo): decrease | MMP/TIMP balance ([9]; compared with placebo): altered | levels of inflammatory markers ([9]; compared with placebo): reduced levels | levels of iron ([9]; compared with placebo): reduced levels | mean FEV1 ([9]; compared with placebo): increased | mean levels of carbonyls ([9]; human, in vivo): lower mean levels | mean levels of chlorotyrosine ([9]; human, in vivo): lower mean levels | myeloperoxidase activity ([9]; human, in vivo): reduced
